SMILES strings stand for the structures. Where a name gives a salt, the structure may show the parent alone. Read-outs that look alike come from different tables or passages of the source.

In one assay the test system is pERK in MKN1 cells. In words: cells. It is filed as cell-based.
The target in assay [1] is recombinant human SOS1 polypeptide (amino acids 560-1049) (Homo sapiens (Human), UniProt Q07889). The experiment in a line: biochemical. It is filed as binding. To be noted: read-out: Ki, Inhibition of Labeled Tracer Binding to SOS1.
Where [2] appears, read: Homo sapiens, MKN-1, pERK inhibition, In-Cell Western, MKN1 or H358 cells (Table 24 does not say which), 0.5-1 hour incubation, read-out: IC50.
[3] abbreviates: HTRF displacement, Cy5 labelled tracer, Morrison equation for competitive binding.

Sequence of recombinant human SOS1 polypeptide (amino acids 560-1049) (Q07889 560-1049): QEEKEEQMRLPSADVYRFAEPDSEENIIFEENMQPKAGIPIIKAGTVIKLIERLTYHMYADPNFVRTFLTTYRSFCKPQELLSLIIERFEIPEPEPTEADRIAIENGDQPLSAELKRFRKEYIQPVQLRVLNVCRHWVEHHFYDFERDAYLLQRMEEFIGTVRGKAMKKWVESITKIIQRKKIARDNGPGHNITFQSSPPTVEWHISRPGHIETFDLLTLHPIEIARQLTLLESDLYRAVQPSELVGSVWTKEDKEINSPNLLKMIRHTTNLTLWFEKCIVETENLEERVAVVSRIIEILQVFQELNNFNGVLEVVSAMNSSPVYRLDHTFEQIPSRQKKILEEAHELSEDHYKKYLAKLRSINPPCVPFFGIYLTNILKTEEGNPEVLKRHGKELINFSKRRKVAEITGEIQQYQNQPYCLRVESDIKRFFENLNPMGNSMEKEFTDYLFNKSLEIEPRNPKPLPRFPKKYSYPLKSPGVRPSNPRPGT

`Cc1cn2c(n1)CN(c1ccc3cnnc(N[C@H](C)c4cccc(C(F)(F)F)c4C)c3c1)CC2` [Example 1-40, (R)-N-(1-(2-methyl-3-(trifluoromethyl)phenyl)ethyl)-7-(2-methyl-5,6-dihydroimidazo[1,2-a]pyrazin-7(8H)-yl)phthalazin-1-amine]: the concentration for half-maximal inhibition (IC50) (usually the point on the concentration scale where inhibition reaches its midpoint) with pERK in MKN1 cells (setting [2]) was 171 nM. Further, in assay [1] (setting [3]), the Ki (usually a dissociation constant, usually derived from enzyme kinetics or from competition with a known ligand) was 0.27 nM.
Turning to `Cc1c([C@@H](C)Nc2nnc(C)c3ccc(N4CCNCC(F)C4)cc23)cccc1C(F)(F)F` (stereo partly drawn) [Example 10-22, 7-(6-fluoro-1,4-diazepan-1-yl)-4-methyl-N-((R)-1-(2-methyl-3-(trifluoromethyl)phenyl)ethyl)phthalazin-1-amine], the IC50 in the assay with pERK in MKN1 cells (setting [2]) was 38 nM. The inhibition constant (Ki) in assay [1] (setting [3]) amounted to 0.45 nM.
Take `Cc1c([C@@H](C)Nc2nnc(C)c3ccc(N4CCS(=O)(=O)CC4)cc23)cccc1C(F)(F)F` [Example 10-23, (R)-4-(1-methyl-4-((1-(2-methyl-3-(trifluoromethyl)phenyl)ethyl)amino)phthalazin-6-yl)thiomorpholine 1,1-dioxide]: the half-inhibitory concentration (IC50) with pERK in MKN1 cells (setting [2]) turned out to be 19 nM. The inhibition constant Ki in assay [1] (setting [3]) worked out at 0.42 nM.
As to `Cc1c(C#N)cc(F)cc1[C@@H](C)Nc1nnc(C)c2cnc(N3CCN4CCOC[C@@H]4C3)cc12` [Example 12-103], the half-inhibitory concentration (IC50) in the assay with pERK in MKN1 cells (setting [2]) is 107 nM. The Ki in assay [1] (setting [3]) turned out to be 10.9 nM.
With `Cc1nnc(N[C@H](C)c2cccc(C(F)(F)F)c2F)c2cc(N3CC(C)(O)C3)ncc12` [Example 12-61], in the assay with pERK in MKN1 cells (setting [2]), the IC50 worked out at 21 nM. In addition, the inhibitory constant (Ki) in assay [1] (setting [3]) came out at 1.68 nM.
On the same counts, the results for `Cc1c(C#N)cccc1[C@@H](C)Nc1nnc(C)c2cnc(N3CC(C)(O)C3)cc12` [Example 12-30] are 54 nM and 2.63 nM.
For `Cc1nnc(N[C@H](C)c2ccc(F)cc2Cl)c2cc(N3CCOCC3)ccc12` [Example 10-59, (R)-N-(1-(2-chloro-4-fluorophenyl)ethyl)-4-methyl-7-morpholinophthalazin-1-amine Hydrochloride salt], in the assay on pERK in MKN1 cells (Homo sapiens, MKN-1), the IC50 is 570 nM. In assay [1], the Ki worked out at 30.9 nM.
As for `Cc1c([C@@H](C)Nc2nnc(C)c3ccc(N4CCC5(CCCN5)CC4)cc23)cccc1C(F)(F)F` [Example 10-18, (R)-4-methyl-N-(1-(2-methyl-3-(trifluoromethyl)phenyl)ethyl)-7-(1,8-diazaspiro[4.5]decan-8-yl)phthalazin-1-amine], the concentration for half-maximal inhibition (IC50) in the assay with pERK in MKN1 cells (pERK inhibition, In-Cell Western, MKN1 or H358 cells (Table 24 does not say which), 0.5-1 hour incubation, read-out: IC50) is 291 nM. Moreover, in assay [1] (setting [3]), the Ki was found to be 1.41 nM.
On to `Cc1c(C#N)cccc1[C@@H](C)Nc1nnc(C)c2cnc(N3CCC(F)(F)CC3)cc12` [Example 12-34], for which the IC50 in the assay on pERK in MKN1 cells (setting [2]) is 51 nM. Further, the inhibition constant Ki in assay [1] (setting [3]) stood at 4.24 nM.
On to `Cc1c([C@@H](C)Nc2nnc(C)c3cnc(N4C5CCC4COC5)cc23)cccc1C(F)(F)F` [Example 12-31], for which, in the assay on pERK in MKN1 cells (setting [2]), the IC50 is 70 nM. For the same compound, the inhibition constant (Ki) in assay [1] (setting [3]) came out at 1.02 nM.
Regarding `Cc1nnc(N[C@H](C)c2cccc(C(F)(F)F)c2F)c2cc(N3C[C@H]4CC[C@@H]3CN4C)ncc12` [Example 12-60], the IC50 in the assay with pERK in MKN1 cells (setting [2]) turned out to be 24 nM. In addition, the inhibitory constant (Ki) in assay [1] (setting [3]) amounted to 0.25 nM.
For the compound `Cc1c([C@@H](C)Nc2nnc(C)c3cnc(N4CCC(C)(N(C)C)CC4)cc23)cccc1C(F)(F)F` [Example 12-18], the IC50 in the assay on pERK in MKN1 cells (setting [2]) is 37 nM. The Ki in assay [1] (setting [3]) was determined as 0.62 nM.
On the same counts, the results for `Cc1cccc([C@@H](C)Nc2nnc(C)c3cnc(N4CC(C)(N(C)C)C4)cc23)c1F` [Example 12-133] are 97 nM and 11.5 nM.
Regarding `Cc1c(C#N)cccc1[C@@H](C)Nc1nnc(C)c2cnc(N3C[C@H]4C[C@@H]3CO4)cc12` [Example 12-24], the IC50 in the assay with pERK in MKN1 cells (setting [2]) stood at 38 nM. For the same compound, the Ki in assay [1] (setting [3]) amounted to 1.24 nM.
The matching figures for `Cc1c([C@@H](C)Nc2nncc3ccc(N4CCn5c(cnc5C)C4)cc23)cccc1C(F)(F)F` [Example 1-37, (R)-N-(1-(2-methyl-3-(trifluoromethyl)phenyl)ethyl)-7-(3-methyl-5,6-dihydroimidazo[1,5-a]pyrazin-7(8H)-yl)phthalazin-1-amine]: 131 nM and 0.25 nM.
Regarding `Cc1nnc(N[C@H](C)c2cc(N)cc(C(F)(F)F)n2)c2cc(N3CC(C)(O)C3)ccc12` [Example 16-10, (R)-1-(4-((1-(4-amino-6-(trifluoromethyl)pyridin-2-yl)ethyl)amino)-1-methylphthalazin-6-yl)-3-methylazetidin-3-ol], in the assay on pERK in MKN1 cells (setting [2]), the half-maximal inhibitory concentration (IC50) came out at 919 nM. The inhibitory constant (Ki) in assay [1] (setting [3]) turned out to be 81 nM.
`Cc1c([C@@H](C)Nc2nnc(C)c3ccc(N4C[C@@H]5CC[C@H]4CN5C)cc23)cccc1C(F)(F)F` [Example 10-31, 4-methyl-N-((R)-1-(2-methyl-3-(trifluoromethyl)phenyl)ethyl)-7-((1S,4S)-5-methyl-2,5-diazabicyclo[2.2.2]octan-2-yl)phthalazin-1-amine]: in the assay on pERK in MKN1 cells (setting [2]), the concentration for half-maximal inhibition (IC50) stood at 3580 nM. Besides, the Ki in assay [1] (setting [3]) was determined as 0.35 nM.
With `Cc1c([C@@H](C)Nc2nnc(C)c3cnc(N4CC(N(C)C)C4)cc23)cccc1C(F)(F)F` [Example 12-20], the IC50 with pERK in MKN1 cells (setting [2]) worked out at 62 nM. In assay [1] (setting [3]), the Ki is 1.6 nM.
The compound `Cc1c([C@@H](C)Nc2nnc(C)c3cc(F)c(N4CCOCC4)cc23)cccc1C(F)(F)F` [Example 18-2, (R)-6-fluoro-4-methyl-N-(1-(2-methyl-3-(trifluoromethyl)phenyl)ethyl)-7-morpholinophthalazin-1-amine] displayed a 50% inhibitory concentration (IC50) in the assay on pERK in MKN1 cells (Homo sapiens, MKN-1, pERK inhibition, In-Cell Western, MKN1 or H358 cells (Table 24 does not say which), 0.5-1 hour incubation) of 380 nM. Further, the Ki in assay [1] came to 5.27 nM.
For `Cc1c([C@@H](C)Nc2nnc(C)c3ccc(N4C[C@H]5CC[C@@H]4CN5C)cc23)cccc1C(F)(F)F` [Example 10-32, 4-methyl-N-((R)-1-(2-methyl-3-(trifluoromethyl)phenyl)ethyl)-7-((1R,4R)-5-methyl-2,5-diazabicyclo[2.2.2]octan-2-yl)phthalazin-1-amine], the IC50 with pERK in MKN1 cells (setting [2]) was 28 nM. Also, the Ki in assay [1] (setting [3]) was 0.2 nM.
As for `Cc1c(C#N)cccc1[C@@H](C)Nc1nnc(C)c2ccc(N3CC(C)(O)C3)cc12` [Example 10-58, (R)-3-(1-((7-(3-hydroxy-3-methylazetidin-1-yl)-4-methylphthalazin-1-yl)amino)ethyl)-2-methylbenzonitrile], the concentration for half-maximal inhibition (IC50) in the assay on pERK in MKN1 cells (setting [2]) came out at 52 nM. Also, the Ki in assay [1] (setting [3]) was 5.78 nM.
As to `COCCN1C[C@H]2CC[C@@H]1CN2c1cc2c(N[C@H](C)c3cccc(C#N)c3C)nnc(C)c2cn1` [Example 12-70], in the assay on pERK in MKN1 cells (setting [2]), the IC50 stood at 13 nM. Further, the inhibitory constant (Ki) in assay [1] (setting [3]) turned out to be 0.68 nM.
In the case of `Cc1c(C#N)cccc1[C@@H](C)Nc1nnc(C)c2ccc(N3CC(N(C)C)C3)cc12` [Example 10-75, (R)-3-(1-((7-(3-(dimethylamino)azetidin-1-yl)-4-methylphthalazin-1-yl)amino)ethyl)-2-methylbenzonitrile Hydrochloride salt], the IC50 in the assay on pERK in MKN1 cells (Homo sapiens, MKN-1) was 56 nM. For the same compound, the inhibition constant (Ki) in assay [1] came out at 6.51 nM.
Take `Cc1nnc(N[C@H](C)c2ccc(F)cc2F)c2cc(N3CC4CC(C3)O4)ncc12` [Example 12-58]: the IC50 with pERK in MKN1 cells (setting [2]) was found to be 38 nM. Also, the Ki in assay [1] (setting [3]) amounted to 14.6 nM.
The matching figures for `Cc1nnc(N[C@H](C)c2cccc(F)c2F)c2cc(N3CC(C)(O)C3)ncc12` [Example 12-56]: 301 nM and 31.1 nM.
Turning to `Cc1c([C@@H](C)Nc2nnc(C)c3ccc(N4CCN(C(=O)[C@H]5CCOC5)CC4)cc23)cccc1C(F)(F)F` [Example 11-5, (4-(1-methyl-4-(((R)-1-(2-methyl-3-(trifluoromethyl)phenyl)ethyl)amino)phthalazin-6-yl)piperazin-1-yl)((S)-tetrahydrofuran-3-yl)methanone], the IC50 with pERK in MKN1 cells (setting [2]) is 12 nM. The Ki in assay [1] (setting [3]) is 0.01 nM.
`Cc1c(C#N)cccc1[C@@H](C)Nc1nnc(C)c2ccc(N3CC(C)(N(C)C)C3)cc12` [Example 10-74, (R)-3-(1-((7-(3-(dimethylamino)-3-methylazetidin-1-yl)-4-methylphthalazin-1-yl)amino)ethyl)-2-methylbenzonitrile Hydrochloride salt] yielded an IC50 in the assay with pERK in MKN1 cells (Homo sapiens, MKN-1) of 65 nM. Also, the inhibition constant Ki in assay [1] came out at 4.26 nM.
For the compound `Cc1c(C#N)cccc1[C@@H](C)Nc1nnc(C)c2cnc(N3CC(N(C)C)C3)cc12` [Example 12-54], in the assay on pERK in MKN1 cells (setting [2]), the IC50 was 45 nM. Further, the Ki in assay [1] (setting [3]) was 5.37 nM.
The matching figures for `Cc1c([C@@H](C)Nc2nnc(C)c3ccc(O[C@H]4CCN(C)C4)cc23)cccc1C(F)(F)F` [Example 7-5, 4-methyl-N-((R)-1-(2-methyl-3-(trifluoromethyl)phenyl)ethyl)-7-(((S)-1-methylpyrrolidin-3-yl)oxy)phthalazin-1-amine]: 110 nM and 0.82 nM.
Turning to `Cc1c([C@@H](C)Nc2nnc(C)c3ccc(N4CC(C)(O)C4)cc23)cccc1C(F)(F)F` [Example 10-47, (R)-3-methyl-1-(1-methyl-4-((1-(2-methyl-3-(trifluoromethyl)phenyl)ethyl)amino)phthalazin-6-yl)azetidin-3-ol], in the assay with pERK in MKN1 cells (setting [2]), the IC50 amounted to 55 nM. Moreover, in assay [1] (setting [3]), the inhibition constant (Ki) amounted to 1.19 nM.
`Cc1cn2c(n1)C(C)N(c1ccc3cnnc(N[C@H](C)c4cccc(C(F)(F)F)c4C)c3c1)CC2` (stereo partly drawn) [Example 1-44, 7-(2,8-dimethyl-5,6-dihydroimidazo[1,2-a]pyrazin-7(8H)-yl)-N-((R)-1-(2-methyl-3-(trifluoromethyl)phenyl)ethyl)phthalazin-1-amine]: in the assay on pERK in MKN1 cells (setting [2]), the half-inhibitory concentration (IC50) was 235 nM. Further, the Ki in assay [1] (setting [3]) was determined as 0.42 nM.
On the same counts, the results for `Cc1cc(F)ccc1[C@@H](C)Nc1nnc(C)c2cnc(N3CC4CC(C3)O4)cc12` [Example 12-84] are 280 nM and 43.4 nM.
Consider `Cc1c(C#N)cccc1[C@@H](C)Nc1nnc(C)c2ccc(N3CCN4CCCC[C@@H]4C3)cc12` [Example 10-82, 2-methyl-3-((R)-1-((4-methyl-7-((R)-octahydro-2H-pyrido[1,2-a]pyrazin-2-yl)phthalazin-1-yl)amino)ethyl)benzonitrile Hydrochloride salt], for which the IC50 with pERK in MKN1 cells (Homo sapiens, MKN-1) amounted to 52 nM. Moreover, in assay [1], the Ki came out at 0.86 nM.

Source of the values: patent publication US11702418B2, “SOS1 inhibitors” (priority 2019, dated 2023).
